In ChEMBL document CHEMBL3351573, “Synthesis and cholinesterase inhibition of cativic acid derivatives” (Bioorg Med Chem, 2014):

What was measured:
Cholinesterase = Cholinesterase (Equus caballus, UniProt P81908)
Description: Inhibition of horse serum BChE by spectrophotometry based Ellman's method

Acetylcholinesterase [1] = target: T1, Acetylcholinesterase (Torpedo californica, UniProt P04058)
Description: Inhibition of Torpedo californica AChE by spectrophotometry based Ellman's method

[2] = Selectivity index, ratio of IC50 for horse serum BChE to IC50 for Torpedo californica AChE
[3] = target: Acetylcholinesterase (Homo sapiens) (UniProt P22303); assay: Inhibition of AChE in human SH-SY5Y cells assessed as enzyme activity at 1 uM after 1 hr by Ellman's method; format: cell-based; design: scale not given: the % may be the effect or the level left
Chain of Acetylcholinesterase (Homo sapiens) (P22303 whole entry): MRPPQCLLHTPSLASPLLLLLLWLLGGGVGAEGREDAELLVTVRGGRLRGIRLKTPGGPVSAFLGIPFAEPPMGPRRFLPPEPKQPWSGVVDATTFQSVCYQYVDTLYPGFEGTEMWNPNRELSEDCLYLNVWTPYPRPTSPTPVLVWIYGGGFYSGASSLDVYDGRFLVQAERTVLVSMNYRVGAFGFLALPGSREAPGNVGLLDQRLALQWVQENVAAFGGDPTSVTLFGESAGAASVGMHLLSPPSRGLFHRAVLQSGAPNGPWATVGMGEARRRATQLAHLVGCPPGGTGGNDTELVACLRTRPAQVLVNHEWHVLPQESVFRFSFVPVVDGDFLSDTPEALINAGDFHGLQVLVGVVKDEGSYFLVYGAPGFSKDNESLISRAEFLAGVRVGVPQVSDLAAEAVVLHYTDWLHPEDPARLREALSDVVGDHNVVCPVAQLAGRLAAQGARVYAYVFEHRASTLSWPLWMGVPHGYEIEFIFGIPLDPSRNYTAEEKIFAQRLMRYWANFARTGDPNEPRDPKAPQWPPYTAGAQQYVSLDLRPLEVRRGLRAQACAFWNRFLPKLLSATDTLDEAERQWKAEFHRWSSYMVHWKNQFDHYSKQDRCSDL

[4] = target: Acetylcholinesterase (Homo sapiens) (UniProt P22303); assay: Inhibition of AChE in human SH-SY5Y cells assessed as enzyme activity at 5 uM after 1 hr by Ellman's method; format: cell-based; design: scale not given: the % may be the effect or the level left
[5] = Cytotoxicity against human SH-SY5Y cells assessed as LDH release at 1 uM after 24 hrs (reference value: 0.02 +/- 0.35%); format: cell-based
[6] = Cytotoxicity against human SH-SY5Y cells assessed as LDH release at 5 uM after 1 hr (reference value: -0.78 +/- 3.50%); format: cell-based
[7] = Cytotoxicity against human SH-SY5Y cells assessed as LDH release at 5 uM after 24 hrs (reference value: 0.02 +/- 0.35%); format: cell-based
[8] = Cytotoxicity against human SH-SY5Y cells assessed as LDH release at 1 uM after 1 hr (reference value: -0.78 +/- 3.50%); format: cell-based
[9] = Cytotoxicity against human SH-SY5Y cells assessed as change in cell morphology at 1 to 5 uM after 1 hr to 24 hrs by phase contrast microscopy; format: cell-based
Acetylcholinesterase [10] = target: T1, Acetylcholinesterase; assay: Mixed type inhibition of Torpedo californica AChE by Lineweaver-Burk plot; design: species or system Tetronarce californica

Chain of Cholinesterase (P81908 whole entry): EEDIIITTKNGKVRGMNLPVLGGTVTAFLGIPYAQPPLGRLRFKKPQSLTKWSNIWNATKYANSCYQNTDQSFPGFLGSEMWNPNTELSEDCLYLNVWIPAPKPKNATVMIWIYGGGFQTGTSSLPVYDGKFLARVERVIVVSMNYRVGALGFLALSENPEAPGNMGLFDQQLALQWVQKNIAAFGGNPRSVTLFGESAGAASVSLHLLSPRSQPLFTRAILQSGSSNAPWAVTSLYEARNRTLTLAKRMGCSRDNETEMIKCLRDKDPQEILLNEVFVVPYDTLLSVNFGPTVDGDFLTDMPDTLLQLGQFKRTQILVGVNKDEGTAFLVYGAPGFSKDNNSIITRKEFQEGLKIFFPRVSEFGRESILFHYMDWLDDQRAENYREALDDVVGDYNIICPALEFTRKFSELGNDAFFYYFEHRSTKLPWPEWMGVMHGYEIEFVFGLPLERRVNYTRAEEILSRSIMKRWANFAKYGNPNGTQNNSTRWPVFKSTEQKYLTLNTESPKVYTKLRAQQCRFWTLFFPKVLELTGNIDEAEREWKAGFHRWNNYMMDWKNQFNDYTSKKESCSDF
T1 sequence (P04058 whole entry): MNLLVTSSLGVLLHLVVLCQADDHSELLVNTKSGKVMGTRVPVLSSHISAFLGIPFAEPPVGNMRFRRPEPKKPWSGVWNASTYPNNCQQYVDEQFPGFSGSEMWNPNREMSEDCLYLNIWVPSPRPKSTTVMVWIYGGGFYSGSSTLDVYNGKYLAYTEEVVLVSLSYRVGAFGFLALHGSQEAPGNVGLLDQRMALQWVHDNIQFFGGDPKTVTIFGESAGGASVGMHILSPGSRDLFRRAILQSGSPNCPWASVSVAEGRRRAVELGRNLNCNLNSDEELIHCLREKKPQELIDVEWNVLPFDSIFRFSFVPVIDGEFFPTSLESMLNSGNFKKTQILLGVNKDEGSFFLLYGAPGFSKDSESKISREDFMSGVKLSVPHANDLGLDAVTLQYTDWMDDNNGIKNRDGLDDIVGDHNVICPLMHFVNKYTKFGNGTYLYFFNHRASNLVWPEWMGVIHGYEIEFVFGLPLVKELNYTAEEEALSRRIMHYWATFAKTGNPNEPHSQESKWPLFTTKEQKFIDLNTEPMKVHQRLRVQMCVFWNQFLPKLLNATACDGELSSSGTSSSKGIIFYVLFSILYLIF

| SMILES | IC50 (Cholinesterase) | IC50 (Acetylcholinesterase [1]) | Ratio IC50 [2] | further results |
| --- | --- | --- | --- | --- |
| CCN(CC)CCCCOC(=O)C[C@@H](C)CC[C@H]1C(CO)=CC[C@H]2C(C)(C)CCC[C@]12C | 23.6 µM | 9.4 µM | 1.8 | – |
| C[C@@H](CC[C@H]1C(CO)=CC[C@H]2C(C)(C)CCC[C@]12C)CC(=O)OCCCCN1CCCC1 | 10.3 µM | 3.2 µM | 3.2 | Activity [3]: 67.3%; Activity [4]: 30.4%; Activity [5]: -0.02%; Activity [6]: 2.33%; Activity [7]: 0.11%; Activity [8]: 1.34%; Activity [9]: Non-toxic; Ki (Acetylcholinesterase [10]): 4.6 µM |
| C[C@@H](CC[C@H]1C(CO)=CC[C@H]2C(C)(C)CCC[C@]12C)CC(=O)OCCCCCCN1CCCC1 | 10.6 µM | 13.5 µM | 0.8 | – |
| C[C@@H](CC[C@H]1C(CO)=CC[C@H]2C(C)(C)CCC[C@]12C)CC(=O)OCCCCCN1CCOCC1 | > 50 µM | > 50 µM | – | – |
| C[C@@H](CC[C@H]1C(CO)=CC[C@H]2C(C)(C)CCC[C@]12C)CC(=O)OCCCN1CCCCC1 | 34.7 µM | 6.2 µM | 5.6 | – |
| C[C@@H](CC[C@H]1C(CO)=CC[C@H]2C(C)(C)CCC[C@]12C)CC(=O)OCCCCCN1CCCCC1 | 24.8 µM | 14.7 µM | 1.7 | – |
| CCN(CC)CCOC(=O)C[C@@H](C)CC[C@H]1C(CO)=CC[C@H]2C(C)(C)CCC[C@]12C | 39.9 µM | > 50 µM | < 0.8 | – |
| C[C@@H](CC[C@H]1C(CO)=CC[C@H]2C(C)(C)CCC[C@]12C)CC(=O)OCCN1CCCC1 | 17 µM | > 50 µM | < 0.3 | – |
| CCN(CC)CCCOC(=O)C[C@@H](C)CC[C@H]1C(CO)=CC[C@H]2C(C)(C)CCC[C@]12C | 18.1 µM | 11.8 µM | 1.5 | – |
| C[C@@H](CC[C@H]1C(CO)=CC[C@H]2C(C)(C)CCC[C@]12C)CC(=O)OCCCCCCN1CCCCC1 | 10.5 µM | 14.5 µM | 0.7 | – |
| C[C@@H](CC[C@H]1C(CO)=CC[C@H]2C(C)(C)CCC[C@]12C)CC(=O)OCCCCCCN1CCOCC1 | > 50 µM | > 50 µM | – | – |
| C[C@@H](CC[C@H]1C(CO)=CC[C@H]2C(C)(C)CCC[C@]12C)CC(=O)OCCN1CCCCC1 | > 50 µM | > 50 µM | – | – |
| C[C@@H](CC[C@H]1C(CO)=CC[C@H]2C(C)(C)CCC[C@]12C)CC(=O)OCCCCN1CCOCC1 | > 50 µM | > 50 µM | – | – |
| C[C@@H](CC[C@H]1C(CO)=CC[C@H]2C(C)(C)CCC[C@]12C)CC(=O)O | 171 µM | 21.1 µM | 8.1 | – |
| CCN(CC)CCCCCCOC(=O)C[C@@H](C)CC[C@H]1C(CO)=CC[C@H]2C(C)(C)CCC[C@]12C | 15.2 µM | 17.8 µM | 0.9 | – |
| C[C@@H](CC[C@H]1C(CO)=CC[C@H]2C(C)(C)CCC[C@]12C)CC(=O)OCCCCCN1CCCC1 | 22.1 µM | 5.5 µM | 4.1 | – |
| CCN(CC)CCCCCOC(=O)C[C@@H](C)CC[C@H]1C(CO)=CC[C@H]2C(C)(C)CCC[C@]12C | 27.2 µM | 13.8 µM | 2 | – |
| C[C@@H](CC[C@H]1C(CO)=CC[C@H]2C(C)(C)CCC[C@]12C)CC(=O)OCCCCN1CCCCC1 | 37.1 µM | 15 µM | 2.5 | – |
| C[C@@H](CC[C@H]1C(CO)=CC[C@H]2C(C)(C)CCC[C@]12C)CC(=O)OCCN1CCOCC1 | > 50 µM | > 50 µM | – | – |
| C[C@@H](CC[C@H]1C(CO)=CC[C@H]2C(C)(C)CCC[C@]12C)CC(=O)OCCCN1CCOCC1 | > 50 µM | > 50 µM | – | – |
| C[C@@H](CC[C@H]1C(CO)=CC[C@H]2C(C)(C)CCC[C@]12C)CC(=O)OCCCN1CCCC1 | 43.8 µM | 33.8 µM | 1.3 | – |
